Results from US20230060425A1, “FUSED BICYCLIC HETEROCYCLE DERIVATIVES AS PESTICIDES” (Bayer Aktiengesellschaft, priority 2019, published 2023).

How the values were obtained:
Type in all cases: in vivo
Boophilus microplus = Boophilus microplus injection test; conditions: application rate 20 μg/animal, after 7 days, laying of fertile eggs
Experimental: Boophilus microplus—Injection Test
(§1) Solvent: Dimethyl sulfoxide
To produce a suitable active compound formulation, 10 mg of active compound are mixed with 0.5 ml of solvent and the concentrate is diluted to the desired concentration with solvent.
1 μl of the active compound solution is injected into the abdomen of 5 engorged adult female cattle ticks (Boophilus microplus). The animals are transferred into dishes and kept in a climate-controlled room.
Efficacy is assessed after 7 days by laying of fertile eggs. Eggs which are not visibly fertile are stored in a climate-controlled cabinet until the larvae hatch after about 42 days. An efficacy of 100% means that none of the ticks has laid any fertile eggs; 0% means that all the eggs are fertile.

Ctenocephalides felis = Ctenocephalides felis oral test; conditions: 48 h, application rate 100 ppm, in citrated cattle blood, after 2 days, read-out: efficacy (kill in %)
How it was run: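 Adult unfed cat fleas (~20 per chamber) fed through parafilm membrane on citrated cattle blood containing compound (DMSO formulation diluted in blood to test concentration). Kill (%) scored after 2 days; 100% = all fleas dead, 0% = none.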

Lucilia cuprina = Lucilia cuprina test; conditions: application rate 100 ppm; L1 larvae; after 2 days
Experimental: as §1
To produce a suitable active compound formulation, 10 mg of active compound are mixed with 0.5 ml of dimethyl sulfoxide, and the concentrate is diluted with water to the desired concentration.
About 20 L1 larvae of the Australian sheep blowfly (Lucilia cuprina) are transferred into a test vessel containing minced horsemeat and the active compound formulation of the desired concentration.
After 2 days, the kill in % is determined. 100% means that all the larvae have been killed; 0% means that no larvae have been killed.

Myzus persicae [1] = assay: Myzus persicae oral test; conditions: 120 h, application rate 4 ppm, after 5 days, read-out: efficacy
How it was run: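 Aphid feeding test: compound dissolved in acetone, diluted with water and mixed with IPL41 insect medium plus sugar, offered through parafilm to a mixed population of green peach aphids. Mortality scored after 5 days as % efficacy (100% = all aphids dead, 0% = none dead).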

Myzus persicae [2] = assay: Myzus persicae spray test; conditions: foliar, 120 h, application rate 100 g/ha, Chinese cabbage leaf discs, after 5 days, read-out: efficacy
How it was run: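 Chinese cabbage leaf discs infested with all stages of Myzus persicae were sprayed with compound in acetone/DMF, diluted in water containing 1000 ppm emulsifier. Efficacy in % assessed after 5 days: 100% all aphids killed, 0% none killed.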

Phaedon cochleariae = Phaedon cochleariae spray test; conditions: foliar, 168 h, application rate 100 g/ha, Chinese cabbage leaf discs, after 7 days, read-out: efficacy
How it was run: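 Chinese cabbage leaf discs sprayed with compound formulated in acetone/DMF and emulsifier-containing water, then infested with mustard beetle larvae after drying. Efficacy read after 7 days as % larvae killed.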

Spodoptera frugiperda = Spodoptera frugiperda spray test; conditions: foliar, 168 h, application rate 100 g/ha, maize leaf discs, after 7 days, read-out: efficacy
Experimental: Spodoptera frugiperda—Spray Test
Solvent: • 78.0 parts by weight of acetone • 1.5 parts by weight of dimethylformamide
Emulsifier: alkylaryl polyglycol ether
To produce further test concentrations, the formulation is diluted with emulsifier-containing water.
After 7 days, the efficacy in % is determined. 100% means that all the caterpillars have been killed; 0% means that no caterpillar has been killed.

Structure (SMILES): CCS(=O)(=O)c1c(-c2nc3cc(C(F)(F)F)cnc3n2C)ncc2cc(Cl)ccc12 [Example I-010]
- efficacy (Boophilus microplus): 80%
- pest or weed control at 100 ppm (Ctenocephalides felis): 100%
- efficacy (kill in %) (Lucilia cuprina): 100%
- pest or weed control at 4 ppm (Myzus persicae [1]): 100%
- pest or weed control at 100 g/ha (Myzus persicae [2]): 100%
- pest or weed control at 100 g/ha (Phaedon cochleariae): 100%
- pest or weed control at 100 g/ha (Spodoptera frugiperda): 100%
